{
  "source": "patent US11453666B2",
  "about": "“Autotaxin inhibitory compounds” (Cancer Research Technology Limited, priority 2015, dated 2022)",
  "target": "human recombinant ATX (Homo sapiens, UniProt Q13822)",
  "assay": "Autotaxin (ATX) activity Quanta Red assay",
  "type": "biochemical",
  "outline": "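Recombinant human ATX reaction stopped after 2 h with Quanta Red stop solution; fluorescence read at […]. Controls with DMSO, with and without ATX; IC50 in duplicate.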",
  "key": {"[1]": {"conditions": "read-out: Activity (ATX activity, Quanta Red assay; IC50)"}, "[2]": {"conditions": "human recombinant ATX 0.8 μg/mL, 2 hours at room temperature, IC50 determined in duplicate, read-out: Activity (ATX activity, Quanta Red assay; IC50)"}},
  "note": "Where two headings read alike, the source gives them in different places.",
  "data": [
    {"smiles": "Cc1cnc2c(c1)nc(CCC(=O)N[C@@H](C)c1ccc(N3CCCNCC3)cc1)n2Cc1ccc(OC(F)(F)F)cc1", "note": "[Example 191, N-[(S)-1-(4-[1,4]Diazepan-1-yl-phenyl)-ethyl]-3-[6-methyl-3-(4-trifluoromethoxy-benzyl)-3H-imidazo[4,5-b]pyridin-2-yl]-propionamide]", "values": [
      {"measurement": "IC50", "setting": "[1]", "result": 25, "unit": "nM"}
    ]},
    {"smiles": "C[C@H](NC(=O)CCc1nc2ccncc2n1Cc1ccc(OC(F)(F)F)cc1)c1ccc(Cl)cc1", "note": "[Example 122, N—[(S)-1-(4-chloro-phenyl)-ethyl]-3-[3-(4-trifluoromethoxy-benzyl)-3H-imidazo[4,5-c]pyridin-2-yl]-propionamide]", "values": [
      {"measurement": "IC50", "setting": "[2]", "result": 3, "unit": "nM"}
    ]},
    {"smiles": "C[C@H](NC(=O)CCc1nc2cccnc2n1Cc1ccc(F)c(F)c1)c1ccc(N2CCN[C@@H](C)C2)cc1", "note": "[Example 184, 3-[3-(3,4-Difluoro-benzyl)-3H-imidazo[4,5-b]pyridin-2-yl]-N-{(S)-1-[4-((S)-3-methyl-piperazin-1-yl)-phenyl]-ethyl}-propionamide]", "values": [
      {"measurement": "IC50", "setting": "[1]", "result": 12, "unit": "nM"}
    ]},
    {"smiles": "O=C(CCc1nc2cccnc2n1Cc1ccc(C(F)(F)F)cc1)NC(CO)c1ccc(OC(F)(F)F)cc1", "note": "(centres unmarked) [Example 32, N-[2-Hydroxy-1-(4-trifluoromethoxy-phenyl)-ethyl]-3-[3-(4-trifluoromethyl-benzyl)-3H-imidazo[4,5-b]pyridin-2-yl]-propionamide]", "values": [
      {"measurement": "IC50", "setting": "[1]", "result": 6, "unit": "nM"}
    ]},
    {"smiles": "C[C@H](NC(=O)CSc1nc2cccnc2n1Cc1ccc(F)cc1)c1ccc(F)cc1", "note": "[Example 146, 2-[3-(4-Fluoro-benzyl)-3H-imidazo[4,5-b]pyridin-2-ylsulfanyl]-N-[(S)-1-(4-fluoro-phenyl)-ethyl]-acetamide]", "values": [
      {"measurement": "IC50", "setting": "[1]", "result": 3, "unit": "nM"}
    ]},
    {"smiles": "C[C@H](NC(=O)CCc1nc2cccnc2n1Cc1ccc(F)cc1)c1ccc(N2CCCCC2)cc1", "note": "[Example 186, 3-[3-(4-Fluoro-benzyl)-3H-imidazo[4,5-b]pyridin-2-yl]-N-[(S)-1-(4-piperidin-1-yl-phenyl)-ethyl]-propionamide]", "values": [
      {"measurement": "IC50", "setting": "[1]", "result": 13, "unit": "nM"}
    ]},
    {"smiles": "C[C@H](NC(=O)CCc1nc2cccnc2n1Cc1ccc(F)c(F)c1)c1ccc(N2CCOCC2)cc1", "note": "[Example 45, 3-[3-(3,4-Difluoro-benzyl)-3H-imidazo[4,5-b]pyridin-2-yl]-N-[(S)-1-(4-morpholin-4-yl-phenyl)-ethyl]-propionamide]", "values": [
      {"measurement": "IC50", "setting": "[1]", "result": 17, "unit": "nM"}
    ]},
    {"smiles": "C[C@H](NC(=O)CCc1nc2cccnc2n1Cc1ccccc1)c1ccccc1", "note": "[Example 1, 3-(3-benzyl-3H-imidazo[4,5-b]pyridin-2-yl)-N—((S)-1-phenyl-ethyl)-propionamide]", "values": [
      {"measurement": "IC50", "setting": "[2]", "result": 68, "unit": "nM"}
    ]},
    {"smiles": "O=C(CCc1nc2cccnc2n1Cc1ccc(OC(F)(F)F)cc1)Nc1nncs1", "note": "[Example 73, N-[1,3,4]Thiadiazol-2-yl-3-[3-(4-trifluoromethoxy-benzyl)-3H-imidazo[4,5-b]pyridin-2-yl]-propionamide]", "values": [
      {"measurement": "IC50", "setting": "[1]", "result": 267, "unit": "nM"}
    ]},
    {"smiles": "C[C@H](NC(=O)CCc1nc2cc(Br)cnc2n1Cc1ccc(OC(F)(F)F)cc1)c1ccc(Cl)cc1", "note": "[Example 61]", "values": [
      {"measurement": "IC50", "setting": "[1]", "result": 100, "unit": "nM"}
    ]},
    {"smiles": "O=C(CCc1nc2cccnc2n1Cc1cccs1)N[C@H](Cc1ccccc1)C(=O)O", "note": "[Example 202, (R)-3-Phenyl-2-[3-(3-thiophen-2-ylmethyl-3H-imidazo[4,5-b]pyridin-2-yl)-propionylamino]-propionic acid]", "values": [
      {"measurement": "IC50", "setting": "[1]", "result": 819, "unit": "nM"}
    ]},
    {"smiles": "O=C(CCc1nc2cccnc2n1Cc1ccc(F)c(F)c1)NC[C@@H](O)c1ccccc1", "note": "[Example 65, 3-[3-(3,4-Difluoro-benzyl)-3H-imidazo[4,5-b]pyridin-2-yl]-N-((S)-2-hydroxy-2-phenyl-ethyl)-propionamide]", "values": [
      {"measurement": "IC50", "setting": "[1]", "result": 155, "unit": "nM"}
    ]},
    {"smiles": "COc1cccc([C@H](C)NC(=O)NCc2nc3cccnc3n2Cc2ccc(F)cc2)c1", "note": "[Example 165, 1-[3-(4-Fluoro-benzyl)-3H-imidazo[4,5-b]pyridin-2-ylmethyl]-3-[(S)-1-(3-methoxy-phenyl)-ethyl]-urea]", "values": [
      {"measurement": "IC50", "setting": "[1]", "result": 514, "unit": "nM"}
    ]},
    {"smiles": "COc1ccc(CNC(=O)CCc2nc3cccnc3n2Cc2ccc(OC)cc2)cc1", "note": "[Example 222, N-(4-Methoxy-benzyl)-3-[3-(4-methoxy-benzyl)-3H-imidazo[4,5-b]pyridin-2-yl]-propionamide]", "values": [
      {"measurement": "IC50", "setting": "Table 2: additional compounds tested for ATX activity (Quanta Red Assay), read-out: Activity", "result": 193, "unit": "nM"}
    ]},
    {"smiles": "O=C(CCc1nc2cccnc2n1Cc1ccc(OC(F)(F)F)cc1)NCC1CCOCC1", "note": "[Example 62, N-(Tetrahydro-pyran-4-ylmethyl)-3-[3-(4-trifluoromethoxy-benzyl)-3H-imidazo[4,5-b]pyridin-2-yl]-propionamide]", "values": [
      {"measurement": "IC50", "setting": "[1]", "result": 125, "unit": "nM"}
    ]},
    {"smiles": "COc1ccc(CNC(=O)CCc2nc3cccnc3n2Cc2cccc(OC(F)(F)F)c2)cc1", "note": "[Example 98, N-(4-Methoxy-benzyl)-3-[3-(3-trifluoromethoxy-benzyl)-3H-imidazo[4,5-b]pyridin-2-yl]-propionamide]", "values": [
      {"measurement": "IC50", "setting": "[1]", "result": 45, "unit": "nM"}
    ]},
    {"smiles": "C[C@H](NC(=O)CCc1nc2ccncc2n1Cc1ccc(F)cc1)c1ccc(F)cc1", "note": "[Example 132, 3-[3-(4-Fluoro-benzyl)-3H-imidazo[4,5-c]pyridin-2-yl]-N-[(S)-1-(4-fluoro-phenyl)-ethyl]-propionamide]", "values": [
      {"measurement": "IC50", "setting": "[2]", "result": 52, "unit": "nM"}
    ]},
    {"smiles": "COc1ccc(Cn2c(CCC(=O)N(C)[C@@H](C)c3ccccc3)nc3cccnc32)cc1", "note": "[Example 104, 3-[3-(4-Methoxy-benzyl)-3H-imidazo[4,5-b]pyridin-2-yl]-N-methyl-N-((S)-1-phenyl-ethyl)-propionamide]", "values": [
      {"measurement": "IC50", "setting": "[1]", "result": 69, "unit": "nM"}
    ]},
    {"smiles": "COc1ccc(Cn2c(CCC(=O)N[C@@H](C)c3ccccc3)nc3cccnc32)cc1", "note": "[Example 92, 3-[3-(4-Methoxy-benzyl)-3H-imidazo[4,5-b]pyridin-2-yl]-N-((S)-1-phenyl-ethyl)-propionamide]", "values": [
      {"measurement": "IC50", "setting": "[1]", "result": 17, "unit": "nM"}
    ]},
    {"smiles": "CC(NC(=O)CCc1nc2cccnc2n1Cc1ccc(OC(F)(F)F)cc1)c1ccncc1", "note": "(centres unmarked) [Example 34, N-(1-Pyridin-4-yl-ethyl)-3-[3-(4-trifluoromethoxy-benzyl)-3H-imidazo[4,5-b]pyridin-2-yl]-propionamide]", "values": [
      {"measurement": "IC50", "setting": "[1]", "result": 6, "unit": "nM"}
    ]},
    {"smiles": "C[C@H](NC(=O)CCc1nc2cccnc2n1Cc1ccc(F)cc1)c1ccccc1", "note": "[Example 87, 3-[3-(4-Fluoro-benzyl)-3H-imidazo[4,5-b]pyridin-2-yl]-N-((S)-1-phenyl-ethyl)-propionamide]", "values": [
      {"measurement": "IC50", "setting": "[1]", "result": 6, "unit": "nM"}
    ]},
    {"smiles": "C[C@H](NC(=O)CCc1nc2cccnc2n1Cc1ccc(OC(F)(F)F)cc1)c1ccc(F)cc1", "note": "[Example 13, N-[(S)-1-(4-Fluoro-phenyl)-ethyl]-3-[3-(4-trifluoromethoxy-benzyl)-3H-imidazo[4,5-b]pyridin-2-yl]-propionamide]", "values": [
      {"measurement": "IC50", "setting": "[1]", "result": 2, "unit": "nM"}
    ]},
    {"smiles": "C[C@H](NC(=O)CCc1nc2cccnc2n1Cc1cccs1)c1ccc(Cl)cc1", "note": "[Example 44, N-[(S)-1-(4-Chloro-phenyl)-ethyl]-3-(3-thiophen-2-ylmethyl-3H-imidazo[4,5-b]pyridin-2-yl)-propionamide]", "values": [
      {"measurement": "IC50", "setting": "[1]", "result": 12, "unit": "nM"}
    ]},
    {"smiles": "O=C(CCc1nc2cccnc2n1Cc1ccc(F)c(F)c1)N[C@H]1CCc2ccccc21", "note": "[Example 55, 3-[3-(3,4-Difluoro-benzyl)-3H-imidazo[4,5-b]pyridin-2-yl]-N-(S)-indan-1-yl-propionamide]", "values": [
      {"measurement": "IC50", "setting": "[1]", "result": 40, "unit": "nM"}
    ]},
    {"smiles": "CC(=O)N1CCC(CNC(=O)CCc2nc3cccnc3n2Cc2ccc(OC(F)(F)F)cc2)CC1", "note": "[Example 216, N-(1-Acetyl-piperidin-4-ylmethyl)-3-[3-(4-trifluoromethoxy-benzyl)-3H-imidazo[4,5-b]pyridin-2-yl]-propionamide]", "values": [
      {"measurement": "IC50", "setting": "[1]", "result": 495, "unit": "nM"}
    ]},
    {"smiles": "Cc1ccc([C@H](C)NC(=O)CCc2nc3cccnc3n2Cc2ccc(F)c(F)c2)cc1", "note": "[Example 85, 3-[3-(3,4-Difluoro-benzyl)-3H-imidazo[4,5-b]pyridin-2-yl]-N-((S)-1-p-tolyl-ethyl)-propionamide]", "values": [
      {"measurement": "IC50", "setting": "[1]", "result": 4, "unit": "nM"}
    ]}
  ]
}
